Article PMC5571344, “Identification and Mode of Action of a Plant Natural Product Targeting Human Fungal Pathogens” (Antimicrobial Agents and Chemotherapy, 2017)
Converted amounts (≈) assume the structure as drawn. Like-named read-outs stand apart in the source and are kept apart here. Blank lines part the entries; values can stand above or below the compound they belong to.

How the values were obtained:
Assay in all cases: microbe, parasite or virus in culture
[1] = tested on: C. albicans; set-up: species or system Candida strains; broth microdilution antifungal susceptibility in YNB buffered at pH 7.0, growth inhibition MIC; conditions: Candida albicans, YNB pH 7.0
Method: (§1) The results of [compound left out] susceptibility assays with several clinically relevant Candida species are shown on Fig. 2B. All strains, except C. glabrata, were highly susceptible to [compound left out]. […] [compound left out] […] The yeast and bacterial strains used in the study are listed in Table S1 in the supplemental material. NPs were dissolved in DMSO to 10 μg/ml. [compound left out] [compound left out] was purchased from Phytolab (GmbH), dissolved in DMSO at a 2 mM concentration, heated for 20 min at 50°C for solubilization, and stored at −20°C until usage.

[2] = tested on: C. tropicalis; set-up: species or system Candida strains; broth microdilution antifungal susceptibility in YNB buffered at pH 7.0, growth inhibition MIC; conditions: Candida tropicalis, YNB pH 7.0
Method: as §1

[3] = tested on: Pichia kudriavzevii C. krusei; set-up: species or system Candida strains; broth microdilution antifungal susceptibility in YNB buffered at pH 7.0, growth inhibition MIC
Method: as §1

[4] = tested on: C. albicans; set-up: species or system Candida strains; broth microdilution antifungal susceptibility according to EUCAST protocols, growth inhibition MIC; conditions: Candida albicans, EUCAST, read-out: MIC Fluconazole
Method: as §1

[5] = tested on: C. tropicalis; set-up: species or system Candida strains; broth microdilution antifungal susceptibility according to EUCAST protocols, growth inhibition MIC; conditions: Candida tropicalis, EUCAST, read-out: MIC Fluconazole
Method: as §1

[6] = tested on: Pichia kudriavzevii C. krusei; set-up: species or system Candida strains; broth microdilution antifungal susceptibility according to EUCAST protocols, growth inhibition MIC; conditions: DSY2293, EUCAST, read-out: MIC Fluconazole
Method: as §1

Structure (SMILES): C[C@H]1CC[C@]2(NC1)O[C@H]1C[C@H]3[C@@H]4CC[C@H]5C[C@@H](O)CC[C@]5(C)[C@H]4CC[C@]3(C)[C@H]1[C@@H]2C [compound 22, Tomatidine]
MIC ([1]; DSY227): 0.625 µM (≈ 0.26 µg/mL)
MIC ([1]; DSY281): 0.312 µM (≈ 0.13 µg/mL)
MIC ([1]; DSY290): 2.5 µM (≈ 1.04 µg/mL)
MIC ([2]; DSY381): 0.312 µM (≈ 0.13 µg/mL)
MIC ([2]; DSY826): 0.15 µM (≈ 0.0623 µg/mL)
MIC ([2]; DSY2274): 2.5 µM (≈ 1.04 µg/mL)
MIC ([2]; DSY2310): 1.25 µM (≈ 0.52 µg/mL)
MIC ([2]; DSY2825): 5 µM (≈ 2.08 µg/mL)
MIC ([3]; DSY2293, YNB pH 7.0): 0.625 µM (≈ 0.26 µg/mL)
MIC ([3]; DSY2294, YNB pH 7.0): > 40 µM
MIC ([3]; DSY2302, YNB pH 7.0): 1.25 µM (≈ 0.52 µg/mL)

MIC ([4]; DSY227): 0.5 µg/mL (≈ 1.63 µM)
MIC ([4]; DSY288): 1 µg/mL (≈ 3.27 µM)
MIC ([4]; DSY297): 2 µg/mL (≈ 6.53 µM)
MIC ([4]; DSY299): 0.25 µg/mL (≈ 0.816 µM)
MIC ([5]; DSY381): 0.5 µg/mL (≈ 1.63 µM)
MIC ([5]; DSY2274): 2 µg/mL (≈ 6.53 µM)
MIC ([5]; DSY2336): 16 µg/mL (≈ 52.2 µM)
MIC ([5]; DSY2374): 8 µg/mL (≈ 26.1 µM)
MIC ([5]; DSY2825): 128 µg/mL (≈ 418 µM)
MIC ([5]; DSY2897): 4 µg/mL (≈ 13.1 µM)
MIC [6]: 32 µg/mL (≈ 104 µM)
Structure (SMILES): OC(Cn1cncn1)(Cn1cncn1)c1ccc(F)cc1F [Fluconazole]
